Data published in DBAASP.
Values after ≈ are worked out from the molar mass of the structure shown. Each block holds one molecule with its values, some of them ahead of it.

What was measured:
Assay in all cases: ≥ marks a high value that may be exact or a test limit, other limits are often not marked, values filed in µg/mL are converted to µM
[1] = tested on: Streptococcus mutans
[2] = tested on: Escherichia coli K-12
[3] = tested on: Staphylococcus aureus USA 300
[4] = tested on: Staphylococcus aureus
[5] = tested on: Pseudomonas aeruginosa ATCC 27853
[6] = tested on: Staphylococcus aureus ATCC 6538
[7] = tested on: Pseudomonas aeruginosa
[8] = tested on: Escherichia coli B
[9] = tested on: Candida albicans F7-39/IDE99
[10] = tested on: Micrococcus luteus CCM 144
[11] = tested on: Bacillus subtilis 168
[12] = tested on: Staphylococcus aureus ATCC 6538P
[13] = tested on: Salmonella enterica subsp. enterica serovar Pullorum C79-13
[14] = tested on: Bacillus subtilis CMCC 63501
[15] = tested on: Staphylococcus epidermidis ATCC 12228
[16] = tested on: Escherichia coli ATCC 25922
[17] = tested on: Staphylococcus aureus ATCC 29213
[18] = tested on: Salmonella enterica subsp. enterica serovar Typhimurium C77-31
[19] = tested on: Enterococcus faecalis ATCC 29212

MIC [1]: ≥ 73.1 µM
SMILES: NC(=O)[C@H](Cc1ccccc1)NC(=O)[C@H](CCCN=C(N)N)NC(=O)[C@H](Cc1cnc[nH]1)NC(=O)[C@H](Cc1ccccc1)NC(=O)[C@H](Cc1c[nH]c2ccccc12)NC(=O)[C@H](Cc1cnc[nH]1)NC(=O)[C@H](Cc1c[nH]c2ccccc12)NC(=O)[C@H](Cc1ccccc1)NC(=O)[C@H](Cc1ccc(O)cc1)NC(=O)[C@H](Cc1cnc[nH]1)NC(=O)[C@@H](N)Cc1ccccc1 [FHYFWHWFHRF]

MIC [1]: 4.28 µM (≈ 16 µg/mL)
SMILES: CC(C)C[C@H](NC(=O)[C@H](CC(C)C)NC(=O)[C@H](Cc1cnc[nH]1)NC(=O)[C@H](Cc1cnc[nH]1)NC(=O)[C@H](CC(C)C)NC(=O)[C@H](CCCCN)NC(=O)[C@H](CCCCN)NC(=O)[C@H](CC(C)C)NC(=O)[C@H](CC(C)C)NC(=O)[C@H](CCCN=C(N)N)NC(=O)[C@H](CCCN=C(N)N)NC(=O)[C@H](Cc1c[nH]c2ccccc12)NC(=O)[C@H](CCCN=C(N)N)NC(=O)CNC(=O)CNC(=O)CNC(=O)[C@H](Cc1ccccc1)NC(=O)[C@H](CCCN=C(N)N)NC(=O)[C@H](CCCN=C(N)N)NC(=O)[C@H](Cc1ccccc1)NC(=O)[C@H](Cc1c[nH]c2ccccc12)NC(=O)[C@H](CCCCN)NC(=O)[C@H](Cc1c[nH]c2ccccc12)NC(=O)[C@H](Cc1ccccc1)NC(=O)[C@H](CCCCN)NC(=O)[C@H](CCCCN)NC(=O)[C@@H](N)Cc1ccccc1)C(=O)N[C@@H](Cc1cnc[nH]1)C(N)=O [FKKFWKWFRRFGGGRWRRLLKKLHHLLH]

MIC [2]: ≥ 100 µM | MIC [3]: ≥ 50 µM | MIC [4]: 130 µM (≈ 211 µg/mL)
SMILES: CC[C@H](C)[C@H](NC(=O)[C@H](CC(C)C)NC(=O)[C@@H]1CCCN1C(=O)[C@H](Cc1ccccc1)NC(=O)[C@H](CC(C)C)NC(=O)[C@@H](N)Cc1ccccc1)C(=O)N[C@H](C(=O)N[C@@H](CO)C(=O)N[C@@H](Cc1ccccc1)C(=O)N[C@@H](CC(C)C)C(=O)N[C@@H](CO)C(=O)N[C@@H](CCCCN)C(=O)N[C@H](C(=O)N[C@@H](CC(C)C)C(=O)O)C(C)C)[C@@H](C)O [FLFPLITSFLSKVL]

MIC [2]: ≥ 60 µM | MIC [3]: ≥ 120 µM
SMILES: CC[C@H](C)[C@H](NC(=O)[C@H](CCCCN)NC(=O)[C@H](CCC(N)=O)NC(=O)[C@@H](NC(=O)[C@@H](NC(=O)[C@H](CCCCN)NC(=O)[C@H](CCCCN)NC(=O)[C@H](Cc1ccccc1)NC(=O)[C@H](CCC(=O)O)NC(=O)CN)[C@@H](C)CC)C(C)C)C(=O)N[C@@H](CCCCN)C(=O)N[C@@H](CC(=O)O)C(=O)N[C@@H](Cc1ccccc1)C(=O)N[C@@H](CC(C)C)C(=O)N[C@@H](CCCCN)C(=O)N[C@@H](CC(N)=O)C(=O)N[C@@H](CC(C)C)C(=O)N[C@H](C(N)=O)C(C)C [GEFKKIVQKIKDFLKNLV]

MIC [2]: 10 µM (≈ 21 µg/mL) | MIC [3]: ≥ 160 µM
SMILES: CC(C)C[C@H](NC(=O)CN)C(=O)N[C@@H](CCCCN)C(=O)N[C@@H](CCCCN)C(=O)N[C@@H](CC(C)C)C(=O)N[C@@H](CC(C)C)C(=O)NCC(=O)N[C@@H](CCCCN)C(=O)N[C@@H](CC(C)C)C(=O)N[C@@H](CC(C)C)C(=O)N[C@@H](CCCCN)C(=O)N[C@@H](CCCCN)C(=O)N[C@@H](CC(C)C)C(=O)NCC(=O)N[C@@H](CCCCN)C(=O)N[C@@H](CC(C)C)C(=O)N[C@@H](CC(C)C)C(=O)N[C@@H](CC(C)C)C(=O)N[C@@H](CCCCN)C(=O)O [GLKKLLGKLLKKLGKLLLK]

MIC [5]: > 3 µM | MIC [2]: 3 µM (≈ 8.01 µg/mL) | MIC [6]: > 6 µM
SMILES: CC[C@H](C)[C@H](NC(=O)[C@H](CCCCN)NC(=O)[C@H](CC(N)=O)NC(=O)[C@H](CCCN=C(N)N)NC(=O)[C@@H](NC(=O)[C@H](CC(N)=O)NC(=O)[C@H](CCCN=C(N)N)NC(=O)[C@@H](NC(=O)[C@H](CCSC)NC(=O)[C@H](CCCCN)NC(=O)[C@H](CCC(=O)O)NC(=O)[C@@H](NC(=O)[C@H](CCCCN)NC(=O)[C@H](CCCCN)NC(=O)[C@H](Cc1ccccc1)NC(=O)[C@@H](NC(=O)[C@H](CCCCN)NC(=O)[C@H](Cc1c[nH]c2ccccc12)NC(=O)[C@@H](N)CCCCN)C(C)C)[C@@H](C)CC)[C@@H](C)CC)[C@@H](C)CC)C(=O)N[C@@H](C)C(=O)N[C@@H](CCCCN)C(N)=O [KWKVFKKIEKMIRNIRNKIAK]

MIC [7]: > 100 µM | MIC [8]: ≥ 100 µM | MIC [9]: ≥ 100 µM | MIC [10]: 30 µM (≈ 42.6 µg/mL) | MIC [11]: ≥ 41.7 µM | MIC [4]: > 100 µM
SMILES: CC[C@H](C)[C@H](NC(=O)[C@H](C)NC(=O)CNC(=O)[C@H](Cc1c[nH]c2ccccc12)NC(=O)[C@H](CC(N)=O)NC(=O)[C@@H](N)CC(C)C)C(=O)N[C@@H](CC(C)C)C(=O)N[C@@H](CCCCN)C(=O)N[C@@H](Cc1cnc[nH]1)C(=O)N[C@@H](CCCCN)C(=O)N[C@H](C(=O)N[C@@H](CCCCN)C(N)=O)[C@@H](C)CC [LNWGAILKHKIK]

MIC [7]: > 100 µM | MIC [8]: ≥ 100 µM | MIC [9]: ≥ 50 µM | MIC [10]: ≥ 38.8 µM | MIC [11]: ≥ 55.8 µM | MIC [4]: > 100 µM
SMILES: CC[C@H](C)[C@H](NC(=O)[C@H](Cc1cnc[nH]1)NC(=O)[C@H](CCCCN)NC(=O)[C@H](CC(C)C)NC(=O)[C@H](CCCCN)NC(=O)[C@H](C)NC(=O)CNC(=O)[C@H](Cc1c[nH]c2ccccc12)NC(=O)[C@H](CC(N)=O)NC(=O)[C@@H](N)CC(C)C)C(=O)N[C@H](C(=O)N[C@@H](CCCCN)C(N)=O)[C@@H](C)CC [LNWGAKLKHIIK]

MIC [7]: 40 µM (≈ 56.2 µg/mL) | MIC [8]: 3.8 µM (≈ 5.34 µg/mL) | MIC [9]: 6.7 µM (≈ 9.41 µg/mL) | MIC [10]: 2.2 µM (≈ 3.09 µg/mL) | MIC [11]: 1.6 µM (≈ 2.25 µg/mL) | MIC [4]: 6.7 µM (≈ 9.41 µg/mL)
SMILES: CC(C)C[C@H](NC(=O)[C@H](C)NC(=O)CNC(=O)[C@H](Cc1c[nH]c2ccccc12)NC(=O)[C@H](CC(N)=O)NC(=O)[C@@H](N)CC(C)C)C(=O)N[C@@H](CC(C)C)C(=O)N[C@@H](CCCCN)C(=O)N[C@@H](Cc1cnc[nH]1)C(=O)N[C@@H](CC(C)C)C(=O)N[C@@H](CC(C)C)C(=O)N[C@@H](CCCCN)C(N)=O [LNWGALLKHLLK]

MIC [1]: ≥ 198 µM
SMILES: CC(C)C[C@H](NC(=O)[C@H](C)NC(=O)[C@H](CCC(=O)O)NC(=O)[C@H](CCCCN)NC(=O)[C@H](C)NC(=O)[C@H](CCC(=O)O)NC(=O)[C@H](Cc1cnc[nH]1)NC(=O)[C@H](CC(C)C)NC(=O)[C@H](C)NC(=O)[C@@H](N)CCCN=C(N)N)C(=O)N[C@@H](CCCCN)C(=O)O [RALHEAKEALK]

MIC [1]: 16.7 µM (≈ 22.6 µg/mL)
SMILES: CC(C)C[C@H](NC(=O)[C@H](CCCCN)NC(=O)[C@H](CCCCN)NC(=O)[C@@H](N)C(C)C)C(=O)N[C@@H](C)C(=O)N[C@@H](CCCCN)C(=O)N[C@@H](CC(C)C)C(=O)N[C@H](C(=O)N[C@@H](CCCN=C(N)N)C(=O)N[C@@H](CCCN=C(N)N)C(=O)N[C@@H](Cc1ccccc1)C(N)=O)C(C)C [VKKLAKLVRRF]

MIC [12]: 0.878 µM | MIC [4]: 4.39 µM
SMILES: CC[C@H](C)[C@@H]1NC(=O)[C@H](C)NC(=O)[C@H](CC(C)C)NC(=O)[C@@H]2CSSC[C@@H](C(=O)N[C@@H](CCCN=C(N)N)C(=O)N[C@@H](CCCN=C(N)N)C(=O)O)NC(=O)[C@H]([C@@H](C)CC)NC(=O)[C@@H]3CSSC[C@H](NC(=O)[C@H](CC(C)C)NC(=O)[C@H](CO)NC(=O)[C@H](Cc4cnc[nH]4)NC(=O)[C@H](CC(N)=O)NC(=O)[C@H](C)NC(=O)[C@H](C)NC(=O)[C@H](Cc4ccccc4)NC(=O)CNC(=O)[C@H](CCCCN)NC(=O)[C@H](C)NC(=O)[C@H](CCC(=O)O)NC(=O)[C@H](Cc4ccccc4)NC(=O)[C@H](CO)NC(=O)[C@H](CC(C)C)NC(=O)[C@H](CC(C)C)NC(=O)[C@H](CC(=O)O)NC(=O)[C@@H](NC(=O)[C@@H](NC(=O)[C@@H](N)C(C)C)[C@@H](C)O)CSSC[C@H](NC(=O)[C@H](CO)NC(=O)CNC(=O)CNC(=O)[C@H](CCCN=C(N)N)NC(=O)[C@H](CCCN=C(N)N)NC(=O)CNC1=O)C(=O)N[C@@H](CCC(=O)O)C(=O)N[C@@H](CCCN=C(N)N)C(=O)NCC(=O)N[C@@H](C(C)C)C(=O)N3)C(=O)N[C@@H](C)C(=O)N[C@@H](C)C(=O)N[C@@H](Cc1cnc[nH]1)C(=O)N2 [VTCDLLSFEAKGFAANHSLCAAHCLAIGRRGGSCERGVCICRR]

MIC [13]: 4 µM (≈ 6.1 µg/mL) | MIC [14]: 2 µM (≈ 3.05 µg/mL) | MIC [5]: > 128 µM | MIC [15]: 8 µM (≈ 12.2 µg/mL) | MIC [16]: 2 µM (≈ 3.05 µg/mL) | MIC [17]: 8 µM (≈ 12.2 µg/mL) | MIC [18]: 16 µM (≈ 24.4 µg/mL) | MIC [19]: 8 µM (≈ 12.2 µg/mL)
SMILES: NC(=O)[C@H](Cc1c[nH]c2ccccc12)NC(=O)[C@H](CCCN=C(N)N)NC(=O)[C@H](CS)NC(=O)[C@H](Cc1ccccc1)NC(=O)[C@H](CCCN=C(N)N)NC(=O)[C@H](CCCN=C(N)N)NC(=O)[C@H](CCCN=C(N)N)NC(=O)[C@H](CS)NC(=O)[C@H](CCCN=C(N)N)NC(=O)[C@@H](N)Cc1c[nH]c2ccccc12 [WRCRRRFCRW]
